Legend:
Experiment in all cases: competitive isoTOP-ABPP
[1] = target: T1, TPMT Thiopurine S-methyltransferase (Homo sapiens, UniProt P51580); assay type: binding; conditions: for isoTOP-ABPP ratio (R) at liganded lysine P51580_K32: 50 uM, in vitro, sol, 231
T1 construct: isoTOP-ABPP experiments performed in cell lysates (in vitro); endogenous in cells; host or cells: soluble proteome of human cancer cell lines (MDA-MB-231; Ramos and Jurkat also prepared)
T1 sequence (P51580 1-245): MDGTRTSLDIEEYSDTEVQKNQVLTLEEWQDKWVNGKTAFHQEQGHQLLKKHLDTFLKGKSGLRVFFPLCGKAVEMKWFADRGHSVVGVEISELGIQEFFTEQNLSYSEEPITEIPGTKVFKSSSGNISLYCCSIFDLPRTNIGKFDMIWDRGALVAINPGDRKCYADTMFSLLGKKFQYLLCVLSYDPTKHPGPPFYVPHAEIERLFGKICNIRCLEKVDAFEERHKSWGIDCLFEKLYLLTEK
Method: (§1) In vitro covalent fragment treatment for isoTOP-ABPP. All compounds were made up as solutions in DMSO (100×) and were used at a final concentration of 50 μM for activated esters and 100 μM for guanidinylating agents. For each profiling sample, 0.5 ml of lysate was treated with 5 μl of the 100× compound stock solution or 5 μl of DMSO. Samples were treated with activated esters for
(§2) STP-alkyne labeling and click chemistry. For concentration-dependent reactivity measurements by isoTOP-ABPP, 0.5 ml proteome aliquots were treated at ambient temperature with 1 mM STP-alkyne 1 (5 μl of 100 mM stock in DMSO) and 0.1 mM STP alkyne 1 (5 μl of 10 mM stock in DMSO), respectively. For competitive isoTOP-ABPP, after in vitro fragment treatment (detailed above), the samples were labeled for 1 h at ambient temperature with 0.1 mM STP-alkyne 1 (5 μl of 10 mM stock in DMSO). Samples were conjugated by copper-mediated azide-alkyne cycloaddition (CuAAC) to either the light (1 mM STP-alkyne or fragment treated) or heavy (0.1 mM STP-alkyne or DMSO treated) TEV tags (10 μl of 5 mM stocks in DMSO, final concentration=100 μM) using tris(2-carboxyethyl)phosphine hydrochloride
(§3) R value calculation and processing. The ratios of light and heavy MS1 peaks for each unique peptide were quantified with a CIMAGE software using default parameters (3 MS1 acquisitions per peak and signal to noise threshold set to 2.5). For reactivity measurements by isoTOP-ABPP, the R value was calculated from the ratio of MS1 peak areas, comparing the 1 mM STP alkyne sample (light TEV tag) with the 0.1 mM STP alkyne sample (heavy TEV tag). For competitive isoTOP-ABPP, the R value was calculated from the ratio of MS1 peak areas, comparing the DMSO treated sample (heavy TEV tag) with the compound treated sample (light TEV tag). […] Ratios for unique peptide entries are calculated for each experiment; overlapping peptides with the same modified lysine (for example, different charge states, MudPIT chromatographic steps or tryptic termini) are grouped together and the median ratio is reported as the final ratio (R). The peptide ratios reported by CIMAGE were further filtered to ensure the removal or correction of low-quality ratios in each individual data set. The quality filters applied were the following: removal of half tryptic peptides; for ratios with high standard deviations from the median (90% of the median or above) the lowest ratio was taken instead of the median; removal of peptides with R=20 and only a single MS2 event triggered during the elution of the parent ion; manual annotation of all the peptides with ratios of 20, removing any peptides with low quality elution profiles that remained after the previous curation steps (only done for competitive isoTOP-ABPP).
(§4) Cross-data processing for fragment screening. For compound treated samples, biological replicates of the same condition were averaged, if the standard deviation was below 60% of the mean; otherwise, for lysines with at least one R value <4 for a particular compound, the lowest value of the ratio set was taken. For lysines, where all R values for a particular compound were ≥4, the average was reported. For peptides containing several possible modified lysines, the lysine with the highest number of quantification events was used for analysis and the remaining, redundant peptides were reported as alternative modification sites. Peptides included in the aggregate dataset (those used for further bioinformatics and statistical analyses) were required to have been quantified in 2 experiments for competitive isoTOP-ABPP. Lysines were categorized as liganded, if they had at least one ratio R≥4 (hit fragments). For liganded lysines with R=20 for all liganding events, lysines were required to have been quantified with R=20 in two separate experiments and were further required to have been quantified with R<20 in one additional experiment.

[2] = target: T2, AGFG1 Arf-GAP domain and FG repeat-containing protein 1 (Homo sapiens, UniProt P52594); assay type: binding; conditions: for isoTOP-ABPP ratio (R) at liganded lysine P52594_K134: 50 uM, in vitro, sol, 231
T2 construct: isoTOP-ABPP experiments performed in cell lysates (in vitro); endogenous in cells; host or cells: soluble proteome of human cancer cell lines (MDA-MB-231, Ramos, Jurkat)
T2 sequence (P52594 1-562): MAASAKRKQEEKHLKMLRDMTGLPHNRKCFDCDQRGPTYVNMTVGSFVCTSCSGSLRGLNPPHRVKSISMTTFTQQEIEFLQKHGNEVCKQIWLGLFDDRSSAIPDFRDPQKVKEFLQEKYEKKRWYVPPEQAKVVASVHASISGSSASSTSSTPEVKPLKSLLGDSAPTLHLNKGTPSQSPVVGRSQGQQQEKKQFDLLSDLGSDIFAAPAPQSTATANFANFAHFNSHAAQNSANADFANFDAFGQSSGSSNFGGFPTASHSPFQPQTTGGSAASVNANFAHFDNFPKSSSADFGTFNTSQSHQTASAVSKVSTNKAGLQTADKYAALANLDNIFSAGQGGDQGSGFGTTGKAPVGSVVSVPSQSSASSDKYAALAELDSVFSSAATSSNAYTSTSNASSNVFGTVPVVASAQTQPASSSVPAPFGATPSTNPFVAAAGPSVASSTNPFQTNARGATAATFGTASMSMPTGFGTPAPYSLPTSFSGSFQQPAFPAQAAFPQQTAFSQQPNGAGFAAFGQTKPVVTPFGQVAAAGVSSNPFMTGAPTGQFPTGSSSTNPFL
Method: as §1, §2, §3, §4

[3] = target: T3, ABCE1 ATP-binding cassette sub-family E member 1 (Homo sapiens, UniProt P61221); conditions: for isoTOP-ABPP ratio (R) at liganded lysine P61221_K191 / isoTOP-ABPP ratio (R) at liganded lysine P61221_K478: 50 uM, in vitro, sol, 231
T3 construct: isoTOP-ABPP experiments performed in cell lysates (in vitro); endogenous in cells; host or cells: soluble proteome of human cancer cell lines (MDA-MB-231, Ramos, Jurkat)
Method: as §1, §2, §3, §4

[4] = target: T4, PSME3 Proteasome activator complex subunit 3 (Homo sapiens, UniProt P61289); assay type: binding; conditions: for isoTOP-ABPP ratio (R) at liganded lysine P61289_K237 / isoTOP-ABPP ratio (R) at liganded lysine P61289_K12: 50 uM, in vitro, sol, 231
T4 construct: isoTOP-ABPP experiments performed in cell lysates (in vitro); endogenous in cells; host or cells: soluble proteome of human cancer cell lines (MDA-MB-231, Ramos, Jurkat)
Method: as §1, §2, §3, §4

T4 sequence (P61289 whole entry, one chain of several): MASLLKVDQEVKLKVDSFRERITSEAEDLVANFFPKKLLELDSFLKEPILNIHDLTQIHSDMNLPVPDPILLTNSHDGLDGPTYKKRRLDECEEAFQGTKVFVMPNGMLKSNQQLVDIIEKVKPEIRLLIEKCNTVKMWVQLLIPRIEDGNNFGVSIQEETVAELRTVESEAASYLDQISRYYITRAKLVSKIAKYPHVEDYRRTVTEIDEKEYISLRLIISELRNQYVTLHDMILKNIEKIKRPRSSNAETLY

Row | Structure (SMILES) | isoTOP-ABPP ratio (R) at liganded lysine P51580_K32 [1] | isoTOP-ABPP ratio (R) at liganded lysine P52594_K134 [2] | isoTOP-ABPP ratio (R) at liganded lysine P61221_K191 [3] | isoTOP-ABPP ratio (R) at liganded lysine P61221_K478 [3] | isoTOP-ABPP ratio (R) at liganded lysine P61289_K237 [4] | isoTOP-ABPP ratio (R) at liganded lysine P61289_K12 [4] | also measured
1 | O=C(CCc1coc2cc(F)ccc2c1=O)Oc1ccc([N+](=O)[O-])cc1[N+](=O)[O-] [fragment 36, 2,4-Dinitrophenyl 3-(7-fluoro-4-oxo-4H-chromen-3-yl)propanoate] | 3.4 | 20.0 | 1.0 | 1.1 | 1.4 |  | 
2 | O=C(Oc1ccc([N+](=O)[O-])cc1[N+](=O)[O-])c1ccc(-c2ccccc2)cc1 [fragment 37, 2,4-Dinitrophenyl [1,1′-biphenyl]-4-carboxylate] | 1.5 | 1.1 | 0.9 | 1.0 | 1.0 | 0.9 | 
3 | O=C(CC12CC3CC(CC(C3)C1)C2)Oc1ccc([N+](=O)[O-])cc1[N+](=O)[O-] [fragment 38, 2,4-Dinitrophenyl 2-(adamantan-1-yl)acetate] | 1.1 | 1.4 |  | 0.9 |  | 1.9 | 
4 | O=C(Oc1ccc([N+](=O)[O-])cc1[N+](=O)[O-])c1ccc(Oc2ccccc2)cc1 [fragment 39, 2,4-Dinitrophenyl 4-phenoxybenzoate] | 1.0 | 1.0 | 0.8 | 1.0 | 0.9 | 0.9 | 
5 | O=C(Oc1ccc([N+](=O)[O-])cc1[N+](=O)[O-])c1ccccc1Nc1cccc(C(F)(F)F)c1 [fragment 40, 2,4-Dinitrophenyl 2-((3-(trifluoromethyl)phenyl)amino)benzoate] | 1.1 | 0.8 | 0.9 | 1.0 | 0.7 | 0.8 | 
6 | CC(C)(C)OC(=O)NCCCC(=O)Oc1ccc([N+](=O)[O-])cc1[N+](=O)[O-] [fragment 41, 2,4-Dinitrophenyl 4-((tert-butoxycarbonyl)amino)butanoate] | 1.5 | 20.0 | 1.2 | 1.3 | 2.2 | 3.5 | 
7 | O=C(Oc1ccc([N+](=O)[O-])cc1[N+](=O)[O-])C(c1ccccc1)(c1ccccc1)c1ccccc1 [fragment 42, 2,4-Dinitrophenyl 2,2,2-triphenylacetate] | 0.9 | 1.0 | 1.0 | 1.1 | 0.9 | 0.9 | 
8 | O=C(CCc1ccc2c(c1)OCO2)Oc1ccc([N+](=O)[O-])cc1[N+](=O)[O-] [fragment 45, 2,4-Dinitrophenyl 3-(benzo[d][1,3]dioxol-5-yl)propanoate] |  |  |  |  |  |  | isoTOP-ABPP ratio, lysine P51580_K32 ([1]; 50 uM_231_sol_in vitro): 2.3; isoTOP-ABPP ratio, lysine P52594_K134 ([2]; 50 uM_231_sol_in vitro): 20.0; isoTOP-ABPP ratio, lysine P61221_K191 ([3]; 50 uM_231_sol_in vitro): 1.1; isoTOP-ABPP ratio, lysine P61221_K478 ([3]; 50 uM_231_sol_in vitro): 1.5; isoTOP-ABPP ratio, lysine P61289_K12 ([4]; 50 uM_231_sol_in vitro): 2.0; isoTOP-ABPP ratio, lysine P61289_K237 ([4]; 50 uM_231_sol_in vitro): 1.6
9 | O=C(ON1C(=O)CCC1=O)c1cc(C(F)(F)F)cc(C(F)(F)F)c1 [fragment 46, 3,5-Bis(trifluoromethyl)benzoic acid NHS ester] |  |  |  |  |  |  | isoTOP-ABPP ratio, lysine P51580_K32 ([1]; 50 uM_231_sol_in vitro): 20.0; isoTOP-ABPP ratio, lysine P52594_K134 ([2]; 50 uM_231_sol_in vitro): 1.0; isoTOP-ABPP ratio, lysine P61221_K191 ([3]; 50 uM_231_sol_in vitro): 20.0; isoTOP-ABPP ratio, lysine P61221_K478 ([3]; 50 uM_231_sol_in vitro): 11.4; isoTOP-ABPP ratio, lysine P61289_K12 ([4]; 50 uM_231_sol_in vitro): 0.7; isoTOP-ABPP ratio, lysine P61289_K237 ([4]; 50 uM_231_sol_in vitro): 0.9
10 | CC(C)(C)OC(=O)N=C(NC(=O)OC(C)(C)C)n1cccn1 [fragment 50, reference compound] |  |  |  |  |  |  | isoTOP-ABPP ratio, lysine P51580_K32 ([1]; 100 uM_231_sol_in vitro): 11.7; isoTOP-ABPP ratio, lysine P52594_K134 ([2]; 100 uM_231_sol_in vitro): 1.0; isoTOP-ABPP ratio, lysine P61221_K191 ([3]; 100 uM_231_sol_in vitro): 14.1; isoTOP-ABPP ratio, lysine P61221_K478 ([3]; 100 uM_231_sol_in vitro): 2.1; isoTOP-ABPP ratio, lysine P61289_K12 ([4]; 100 uM_231_sol_in vitro): 0.7; isoTOP-ABPP ratio, lysine P61289_K237 ([4]; 100 uM_231_sol_in vitro): 0.9
11 | NC(=O)c1cc(C(F)(F)F)cc(C(F)(F)F)c1 [fragment 51, reference compound] |  |  |  |  |  |  | isoTOP-ABPP ratio, lysine P51580_K32 ([1]; 50 uM_231_sol_in vitro): 0.8; isoTOP-ABPP ratio, lysine P52594_K134 ([2]; 50 uM_231_sol_in vitro): 0.9; isoTOP-ABPP ratio, lysine P61221_K191 ([3]; 50 uM_231_sol_in vitro): 1.0; isoTOP-ABPP ratio, lysine P61221_K478 ([3]; 50 uM_231_sol_in vitro): 0.9; isoTOP-ABPP ratio, lysine P61289_K237 ([4]; 50 uM_231_sol_in vitro): 0.7
